“Also recorded” adds a separate entry of the source.

The nature of the test: Oral glucose tolerance test (OGTT) in healthy dogs. Format: in vivo, dog. The settings on record: male beagle, n=6, single s.c. injection at time 0, insulin glargine 0.3 U/kg, AVE0010 10 μg/kg, relative to Lantus placebo; for OGTT-induced postprandial increase in blood glucose: repeated OGTT 2 g/kg p.o. at 30 min and 5 h; for blood glucose concentration in the postabsorptive phase: repeated OGTT 2 g/kg p.o. How it is done:
Model: Oral glucose tolerance test (OGTT) in healthy dogs: Comparison of the insulin glargine/AVE0010 combination with the two individual active compounds.
• Male normoglycemic beagles • Bodyweight: ˜15 kg • Number per group: n=6 Study Design (See FIG. 1) • Individual subcutaneous injections of placebo or test formulation at time 0 • 2 oral administrations of glucose, at 2 g of glucose/kg of bodyweight, at times 30 min and 5 h • Blood samples are taken to determine blood glucose, plasma insulin, and c-peptide Group Division (n=6) • Placebo (Lantus placebo formulation without API) • Insulin glargine (0.3 μl/kg s.c., equivalent to 1.8 nmol/kg). Insulin glargine is Gly(A21)-Arg(B31)-Arg(B32) human insulin. • AVE0010 (10 μg/kg s.c. in Lantus placebo formulation, equivalent to 2 nmol/kg).
AVE0010 is des Pro^36exendin-4(1-39)-Lys6-NH2. • AVE0010/insulin glargine combination (10 μg/kg AVE0010/0.3 μl/kg insulin glargine s.c.)

As for “Gly(A21)-Arg(B31)-Arg(B32) human insulin [insulin glargine]”, the “OGTT-induced postprandial increase in blood glucose” value was “does not prevent the OGTT-induced increase in blood glucose; also recorded: has no effect on the postprandial glucose level” and the “blood glucose concentration in the postabsorptive phase” value was “reinforces the expected delayed lowering of blood glucose concentration in the postabsorptive phase”.

For the substance “des Pro^36exendin-4(1-39)-Lys6-NH2 [AVE0010]”, the “OGTT-induced postprandial increase in blood glucose” value was “prevents the OGTT-induced postprandial increase in blood glucose almost completely” and the “blood glucose concentration in the postabsorptive phase” value is on record as “no effect on the glucose concentration in the postabsorptive phase; also recorded: has no effect on the level of glucose, which has fallen again following administration of glucose”.

Source of the values: patent US10117909B2, “Combination of an insulin and a GLP-1 agonist” (Sanofi-Aventis Deutschland GmbH, priority 2008, dated 2018).
